From DBAASP
In brackets after ≈: the same amount, converted by molar mass.

Tests used:
Test in all cases: ≥ marks a high value that may be exact or a test limit, other limits are often not marked, values filed in µg/mL are converted to µM
[1] = test system: Acinetobacter baumannii MTCC 9829
[2] = test system: Alcaligenes faecalis MTCC 1937
[3] = test system: Alkalihalobacillus alcalophilus MTCC 860
[4] = test system: Bordetella bronchiseptica MTCC 6837
[5] = test system: Citrobacter freundii MTCC 1658
[6] = test system: Citrobacter koseri MTCC 1657
[7] = test system: Corynebacterium glutamicum MTCC 2679
[8] = test system: Enterococcus faecalis MTCC 439
[9] = test system: Escherichia coli K12 MG1655
[10] = test system: Haemophilus influenzae MTCC 621
[11] = test system: Klebsiella aerogenes MTCC 111
[12] = test system: Klebsiella oxytoca MTCC 2275
[13] = test system: Klebsiella pneumoniae MTCC 7407
[14] = test system: Pluralibacter gergoviae MTCC 3826
[15] = test system: Proteus mirabilis MTCC 3158
[16] = test system: Proteus vulgaris MTCC 1771
[17] = test system: Pseudomonas aeruginosa MTCC 3542
[18] = test system: Salmonella enterica MTCC 9844
[19] = test system: Salmonella enterica subsp. enterica serovar Typhimurium ATCC 14028
[20] = test system: Shigella boydii MTCC 11947
[21] = test system: Shigella flexneri MTCC 1457
[22] = test system: Staphylococcus aureus MTCC 3160
[23] = test system: Staphylococcus haemolyticus MTCC 3383
[24] = test system: Stenotrophomonas maltophilia MTCC 1890
[25] = test system: Vibrio cholerae MTCC 3904
[26] = test system: Candida albicans CGMCC 2.2086
Candida albicans = test system: Candida albicans
[27] = test system: Candida parapsilosis CGMCC 2.3989
[28] = test system: Candida tropicalis CGMCC 2.1975
Acinetobacter baumannii = test system: Acinetobacter baumannii
[29] = test system: Escherichia coli ATCC 25922
Escherichia coli K88 = test system: Escherichia coli K88
Escherichia coli K99 = test system: Escherichia coli K99
Escherichia coli UB1005 = test system: Escherichia coli UB1005
Escherichia coli = test system: Escherichia coli
Klebsiella pneumoniae = test system: Klebsiella pneumoniae
[30] = test system: Pseudomonas aeruginosa ATCC 27853
[31] = test system: Pseudomonas aeruginosa CICC 21625
[32] = test system: Pseudomonas aeruginosa CICC 21630
[33] = test system: Pseudomonas aeruginosa PAO1
Pseudomonas aeruginosa = test system: Pseudomonas aeruginosa
[34] = test system: Salmonella enterica subsp. enterica serovar Pullorum C79-13
[35] = test system: Salmonella enterica subsp. enterica serovar Typhimurium C77-31

CC[C@H](C)[C@H](NC(=O)[C@H](C)N)C(=O)N[C@H](C(=O)N[C@@H](CCC(=O)O)C(=O)N[C@@H](CCC(N)=O)C(=O)N[C@@H](CC(C)C)C(=O)N[C@@H](CCCN=C(N)N)C(=O)N[C@@H](CCCCN)C(=O)N[C@@H](CCCN=C(N)N)C(=O)N[C@@H](CS)C(=O)O)C(C)C [AIVEQLRKRC]
MIC [1]: ≥ 105 µM
MIC [2]: ≥ 105 µM
MIC [3]: ≥ 105 µM
MIC [4]: ≥ 105 µM
MIC [5]: ≥ 105 µM
MIC [6]: ≥ 105 µM
MIC [7]: ≥ 105 µM
MIC [8]: ≥ 105 µM
MIC [9]: ≥ 105 µM
MIC [10]: ≥ 105 µM
MIC [11]: ≥ 105 µM
MIC [12]: ≥ 105 µM
MIC [13]: ≥ 105 µM
MIC [14]: ≥ 105 µM
MIC [15]: ≥ 105 µM
MIC [16]: ≥ 105 µM
MIC [17]: ≥ 105 µM
MIC [18]: ≥ 105 µM
MIC [19]: > 105 µM
MIC [20]: ≥ 105 µM
MIC [21]: ≥ 105 µM
MIC [22]: ≥ 105 µM
MIC [23]: ≥ 105 µM
MIC [24]: ≥ 105 µM
MIC [25]: ≥ 105 µM

CC[C@H](C)[C@H](NC(=O)[C@H](C)NC(=O)[C@H](CC(C)C)NC(=O)[C@H](C)NC(=O)[C@H](CC(C)C)NC(=O)[C@H](CCCCN)NC(=O)[C@H](CC(C)C)NC(=O)[C@H](C)NC(=O)[C@H](CO)NC(=O)[C@H](C)NC(=O)[C@H](CC(C)C)NC(=O)[C@H](CC(C)C)NC(=O)[C@H](CCCCN)NC(=O)[C@H](CCCCN)NC(=O)[C@H](C)NC(=O)[C@@H](NC(=O)[C@@H](N)CCC(=O)O)C(C)C)C(=O)O [EVAKKLLASALKLALAI]
MIC [1]: ≥ 73.1 µM
MIC [2]: ≥ 73.1 µM
MIC [3]: ≥ 73.1 µM
MIC [4]: 9.13 µM (≈ 16 µg/mL)
MIC [5]: ≥ 73.1 µM
MIC [6]: ≥ 73.1 µM
MIC [7]: 18.3 µM (≈ 32 µg/mL)
MIC [8]: ≥ 73.1 µM
MIC [9]: ≥ 73.1 µM
MIC [10]: ≥ 36.5 µM
MIC [11]: ≥ 73.1 µM
MIC [12]: ≥ 73.1 µM
MIC [13]: ≥ 73.1 µM
MIC [14]: ≥ 73.1 µM
MIC [15]: ≥ 73.1 µM
MIC [16]: ≥ 73.1 µM
MIC [17]: ≥ 73.1 µM
MIC [18]: ≥ 73.1 µM
MIC [19]: > 73.1 µM
MIC [20]: ≥ 73.1 µM
MIC [21]: ≥ 73.1 µM
MIC [22]: ≥ 73.1 µM
MIC [23]: ≥ 73.1 µM
MIC [24]: ≥ 73.1 µM
MIC [25]: ≥ 73.1 µM

CC[C@H](C)[C@H](NC(=O)CNC(=O)[C@H](CCCCN)NC(=O)[C@@H](NC(=O)[C@H](CC(C)C)NC(=O)[C@H](CC(C)C)NC(=O)[C@@H](NC(=O)[C@H](CCCCN)NC(=O)CNC(=O)[C@@H](NC(=O)[C@@H](N)CCCCN)[C@@H](C)CC)C(C)C)C(C)C)C(=O)N[C@@H](CCCCN)C(N)=O [KIGKVLLVKGIK]
MIC [26]: ≥ 64 µM
MIC (Candida albicans): > 64 µM
MIC [27]: ≥ 64 µM
MIC [28]: ≥ 64 µM

CC[C@H](C)[C@H](NC(=O)[C@@H](N)CCCCN)C(=O)NCC(=O)N[C@@H](CCCCN)C(=O)N[C@H](C(=O)N[C@@H](CC(C)C)C(N)=O)C(C)C [KIGKVL]
MIC [26]: ≥ 64 µM
MIC (Candida albicans): > 64 µM
MIC [27]: ≥ 64 µM
MIC [28]: ≥ 64 µM

CC(C)C[C@H](NC(=O)[C@@H]1CCCN1C(=O)[C@H](CCCN=C(N)N)NC(=O)[C@H](CC(C)C)NC(=O)[C@H](CC(C)C)NC(=O)[C@@H]1CCCN1C(=O)[C@H](CCCN=C(N)N)NC(=O)[C@H](CC(C)C)NC(=O)[C@H](CC(C)C)NC(=O)[C@@H]1CCCN1C(=O)[C@H](CCCN=C(N)N)NC(=O)[C@H](CC(C)C)NC(=O)[C@H](CC(C)C)NC(=O)[C@@H]1CCCN1C(=O)[C@H](CCCN=C(N)N)NC(=O)[C@H](CC(C)C)NC(=O)[C@H](CC(C)C)NC(=O)[C@@H]1CCCN1C(=O)[C@H](CCCN=C(N)N)NC(=O)[C@H](CC(C)C)NC(=O)[C@H](CC(C)C)NC(=O)[C@@H]1CCCN1C(=O)[C@H](CCCN=C(N)N)NC(=O)[C@H](CC(C)C)NC(=O)[C@H](CC(C)C)NC(=O)[C@@H]1CCCN1C(=O)[C@H](CCCN=C(N)N)NC(=O)[C@@H](N)CC(C)C)C(N)=O [LRPLLRPLLRPLLRPLLRPLLRPLLRPL]
MIC (Acinetobacter baumannii): 1 µM (≈ 3.37 µg/mL)
MIC [29]: 1 µM (≈ 3.37 µg/mL)
MIC (Escherichia coli K88): 1 µM (≈ 3.37 µg/mL)
MIC (Escherichia coli K99): 1 µM (≈ 3.37 µg/mL)
MIC (Escherichia coli UB1005): 2 µM (≈ 6.75 µg/mL)
MIC (Escherichia coli): 1 µM (≈ 3.37 µg/mL)
MIC (Klebsiella pneumoniae): 2 µM (≈ 6.75 µg/mL)
MIC [30]: 1 µM (≈ 3.37 µg/mL)
MIC [31]: 8 µM (≈ 27 µg/mL)
MIC [32]: 2 µM (≈ 6.75 µg/mL)
MIC [33]: 1 µM (≈ 3.37 µg/mL)
MIC (Pseudomonas aeruginosa): 2.83 µM (≈ 9.54 µg/mL)
MIC [34]: 1 µM (≈ 3.37 µg/mL)
MIC [19]: 1 µM (≈ 3.37 µg/mL)
MIC [35]: 2 µM (≈ 6.75 µg/mL)

CC(C)[C@H](N)C(=O)N[C@@H](CCCN=C(N)N)C(=O)N1CCC[C@H]1C(=O)N[C@H](C(=O)N[C@H](C(=O)N[C@@H](CCCN=C(N)N)C(=O)N1CCC[C@H]1C(=O)N[C@H](C(=O)N[C@H](C(=O)N[C@@H](CCCN=C(N)N)C(=O)N1CCC[C@H]1C(=O)N[C@H](C(=O)N[C@H](C(=O)N[C@@H](CCCN=C(N)N)C(=O)N1CCC[C@H]1C(=O)N[C@H](C(=O)N[C@H](C(=O)N[C@@H](CCCN=C(N)N)C(=O)N1CCC[C@H]1C(=O)N[C@H](C(=O)N[C@H](C(=O)N[C@@H](CCCN=C(N)N)C(=O)N1CCC[C@H]1C(=O)N[C@H](C(=O)N[C@H](C(=O)N[C@@H](CCCN=C(N)N)C(=O)N1CCC[C@H]1C(=O)N[C@H](C(N)=O)C(C)C)C(C)C)C(C)C)C(C)C)C(C)C)C(C)C)C(C)C)C(C)C)C(C)C)C(C)C)C(C)C)C(C)C)C(C)C [VRPVVRPVVRPVVRPVVRPVVRPVVRPV]
MIC (Acinetobacter baumannii): 4 µM (≈ 12.7 µg/mL)
MIC [29]: 8 µM (≈ 25.4 µg/mL)
MIC (Escherichia coli K88): 8 µM (≈ 25.4 µg/mL)
MIC (Escherichia coli K99): 16 µM (≈ 50.8 µg/mL)
MIC (Escherichia coli UB1005): 8 µM (≈ 25.4 µg/mL)
MIC (Escherichia coli): 8 µM (≈ 25.4 µg/mL)
MIC (Klebsiella pneumoniae): 32 µM (≈ 102 µg/mL)
MIC [30]: > 64 µM
MIC [31]: ≥ 64 µM
MIC [32]: ≥ 64 µM
MIC [33]: > 64 µM
MIC (Pseudomonas aeruginosa): > 64 µM
MIC [34]: 4 µM (≈ 12.7 µg/mL)
MIC [19]: 8 µM (≈ 25.4 µg/mL)
MIC [35]: 16 µM (≈ 50.8 µg/mL)
